According to patent publication US5183736A, “Methods using estrogen receptor as a constitutive transcriptional activator and a repressor” (La Jolla Cancer Research Foundation, priority 1990, dated 1993):
Entries after “also recorded” stand apart in the source; their conditions may differ.

How the values were obtained:
[1] = biological target: human estrogen receptor (ER, wild type, GLY at position 400) (Homo sapiens, UniProt P03372)
Method: (§1) (a) Induction of CAT activity. CV-1 cells were transiently cotransfected with 2 μg of ERE-CAT reporter plasmid alone (control) or together with 1 μg of receptor expression vector and 3 μg of β-gal expression vector (pCH110, Pharmacia) which served as an internal control. Carrier DNA (Bluescript) was added to 23 μg total DNA. […] CAT activity is corrected for β-gal activity.
CV-1 cells were cotransfected with 2 μg ERE reporter plasmid alone (control) and with decreasing amounts of ER expression vector as indicated. […] A representative experiment is shown.
(§2) CV-1 cells were cotransfected as described under (a) using ER (c) or ERval (d) expression vectors and reporter plasmid.
(§3) CV-1 cells were transiently cotransfected with ER or ERval expression vectors and reporter plasmid as described in FIG. 1. […] CAT enzyme activities presented are corrected for transfection efficiency by measuring β-gal expression.
CV-1 cells were cotransfected as described above. […] CAT activities were measured as described.
To investigate the transcriptional regulatory properties of the human estrogen receptor, transient cotransfection experiments were carried out in which CV-1 cells were transfected with an estrogen receptor (ER) expression vector and an estrogen responsive CAT (chloramphenicol acetyl-transferase) reporter gene. We investigated the "wild type" receptor^9 that carries a GLY at position 400 (ER) and a mutant receptor that contains a VAL at position 400 (ERval). This mutant receptor was cloned from a human mammary carcinoma cell line cDNA library and was originally thought to represent the wild type hER^10,11. In addition we investigated another mutant receptor that we obtained by deleting the coding sequences for amino acids 442-498 (ERdel) of the hormone binding domain. The estrogen response element (ERE) we use here is a palindromic sequence ([…]) that is derived from the vitellogenin gene promoter^12.
(§4) The transient transfection was performed as follows. […] After 24 h cultures were washed with PBS and new medium was added. A modified calcium phosphate precipitation procedure was used for transient transfection^20. 18 h after transfections, cultures were washed twice with PBS, and fresh medium was added together with the desired amount of hormone. After 24 h. cells were collected and cell extract was prepared. β-gal assay was performed as described^21. CAT activity was assayed by using ^3 H-acetylated chloramphenicol and a mixed-phase scintillation measurement, as described in reference 22, below. CPM corrected for β-gal activity represents relative CAT activity. ERE-CAT was constructed by inserting the above synthetic ERE-oligonucleotide with BglII linkers into the BamH1 site of pBLCAT2^23.

[2] = test system: mutant estrogen receptor ERval (VAL at position 400); assay: transient cotransfection ERE-CAT reporter assay in CV-1 cells, ERval; type: cell-based, human
Method: as §1, §2, §3
To investigate the transcriptional regulatory properties of the human estrogen receptor, transient cotransfection experiments were carried out in which CV-1 cells were transfected with an estrogen receptor (ER) expression vector and an estrogen responsive CAT (chloramphenicol acetyl-transferase) reporter gene. We investigated the "wild type" receptor^9 that carries a GLY at position 400 (ER) and a mutant receptor that contains a VAL at position 400 (ERval). This mutant receptor was cloned from a human mammary carcinoma cell line cDNA library and was originally thought to represent the wild type hER^10,11. […]

[3] = test system: ERval; assay: gel retardation assay, ERval binding to 32P-labelled ERE; parameters: species or system human; conditions: for effect on binding of ERval to the ERE: high concentrations, FIG. 2b
Method: (§5) (a) DNA binding of ER and ER mutants. […] As control, the labelled ERE (lane 1) and the lysate (lane 2) were run alone. Binding of receptors to labelled ERE was competed with 50 fold excess of unlabelled ERE(S) or nonspecific unlabelled oligonucleotides (N).
(§6) To investigate the ER protein-DNA interaction gel retardation assays were performed^5,13. Receptor proteins were synthesized by in vitro transcription/translation^5,7, incubated with ^32 P-labelled ERE, and run on a non-denaturing acrylamide gel (FIG. 2a). The assay was performed as follows. ER and ERval cDNA cloned in Bluescript (Stratagene) were transcribed using T7 or T3 RNA polymerase, and translated, using rabbit reticulocyte translation system (Promega) as described^5. 5 μl of in vitro translated receptor protein were incubated with ^32 P labeled ERE fragment in a reaction mixture containing 20 mM Hepes buffer pH 7.9, 50 mM KCl, 1 mM DTT, 2.5 mM MgCl2, 10% glycerol, and 1 μg poly (dI-dC) at 25° C. for 20 min. Reaction mixtures were loaded on a 5% non-denaturing polyacrylamide gel containing 10 mM HEPES pH 7.9 and 3.3 mM sodium acetate pH 7.9, and electrophoresed. Gels were run at 4° C., 140 V for 3 h with continued circulation of buffer.

[4] = biological target: ER (Homo sapiens, UniProt P03372); conditions: 10^-8 M OH-Tam, 10^-7 M T3, FIG. 5
Method: (§7) A representative experiment is shown.
as §4

[5] = test system: ERval; assay: repressor assay: ERval cotransfected with ER-TRα and ERE-CAT in CV-1 cells; type: cell-based, human; conditions: 10^-8 M OH-Tam, 10^-7 M T3, FIG. 5
Method: CAT activities were measured as described in the Example. A representative experiment is shown.
The transient transfection was performed as follows.

[6] = test system: ER-ERE complex; assay: dissociation of the ER-ERE complex (gel retardation); type: binding, human; conditions: 10^-8 M ligand, 50 fold excess unlabelled ERE, 10° C., FIG. 6
Method: At time 0, a 50 fold excess of non-labelled ERE was added. After incubation at 10° C. for the indicated time intervals, aliquots were loaded on a running non-denaturing 5% polyacrylamide gel.
The assay was performed as follows.
To measure the stability of the ER-ERE complexes in the presence and absence of ligands, the dissociation of the complexes was analyzed (FIG. 6).

[7] = test system: ERdel; conditions: 10^-8 M E2, FIG. 2a
Method: as §5, §6

[8] = test system: TRα-ERval hybrid receptor; conditions: 10^-8 M E2, FIG. 4c
Method: as §6

[9] = test system: ER-TRα hybrid receptor; assay: ERE-CAT activation by hybrid receptor ER-TRα alone in CV-1 cells; type: cell-based, human; conditions: 10^-7 M T3, FIG. 5
Method: as §7, §4

[10] = biological target: estrogen receptor alpha (ER, wild type, Gly400) (Homo sapiens, UniProt P03372 P03372:1-595); assay: EMSA; strong with and without E2 or Tam; 20 mM Hepes pH 7.9, 50 mM KCl, 2.5 mM MgCl2, poly(dI-dC), 25 C; dissociation not substantially changed by E2 or OH-Tam (FIG.); conditions: tags: rabbit reticulocyte lysate; chain copies: 2; label: 32P
[11] = biological target: ERval (estrogen receptor Val400) (Homo sapiens, UniProt P03372 P03372:1-595, G400V); assay: EMSA; with E2; conditions: tags: rabbit reticulocyte lysate; chain copies: 2; label: 32P
Sequence of ERval (estrogen receptor Val400) (P03372 whole entry G400V, one chain of several): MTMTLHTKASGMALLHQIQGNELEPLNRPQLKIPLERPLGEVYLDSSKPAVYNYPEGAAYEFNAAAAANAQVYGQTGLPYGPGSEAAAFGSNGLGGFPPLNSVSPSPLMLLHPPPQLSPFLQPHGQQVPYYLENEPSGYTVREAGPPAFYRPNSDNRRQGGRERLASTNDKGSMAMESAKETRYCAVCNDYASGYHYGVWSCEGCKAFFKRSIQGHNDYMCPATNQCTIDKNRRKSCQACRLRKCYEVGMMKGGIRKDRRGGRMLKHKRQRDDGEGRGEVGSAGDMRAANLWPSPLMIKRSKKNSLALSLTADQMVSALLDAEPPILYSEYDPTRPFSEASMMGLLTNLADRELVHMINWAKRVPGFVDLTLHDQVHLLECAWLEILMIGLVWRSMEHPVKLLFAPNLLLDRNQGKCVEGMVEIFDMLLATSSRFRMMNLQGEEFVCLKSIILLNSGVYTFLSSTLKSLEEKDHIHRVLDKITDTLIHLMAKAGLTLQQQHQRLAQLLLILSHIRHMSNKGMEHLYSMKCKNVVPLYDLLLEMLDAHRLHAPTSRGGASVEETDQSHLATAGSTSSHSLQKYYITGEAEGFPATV

Sequence of human estrogen receptor (ER, wild type, GLY at position 400) (P03372 whole entry): as the sequence (P03372 whole entry G400V, one chain of several) above, with V400G counted along it
Sequence of estrogen receptor alpha (ER, wild type, Gly400) (P03372 whole entry, one chain of several): as the sequence (P03372 whole entry G400V, one chain of several) above, with V400G counted along it
Sequence of ER (P03372 whole entry): as the sequence (P03372 whole entry G400V, one chain of several) above, with V400G counted along it

4-hydroxytamoxifen [OH-Tam]
OH-Tam concentration sufficient to repress E2 action on ER [1]: nanomolar concentrations | concentration dependence of the agonist effect on ER [1]: does not increase with increasing concentrations of ligand | effect on ER basal level activity [1]: do not significantly repress | effect on basal level activity of ER at very low receptor concentrations [1]: increases the basal level activity | effect on transcriptional enhancing activity of ER [1]: maintained at the constitutive basal level | effect on activation capacity of ERval ([2]; OH-Tam 10^-8 M, no E2, FIG. 3a): restores the basal gene activation capacity; also recorded: increased by OH-Tam (10^-8 M) to the basal level of ER wild type | effect on ERval activation capacity in the presence of E2 ([2]; OH-Tam with E2 10^-8 M, FIG. 3a): reduced to the wild type basal level | effect on binding of ERval to the ERE [3]: drastically increase | effect on repression capacity of ER towards ER-TRα [4]: slightly increases | repression of ER-TRα activity by ERval [5]: restores the ability of ERval to repress; also recorded: only an efficient repressor of ER-TRα in the presence of OH-Tam | effect on dissociation of the ER-DNA complex [6]: no substantial difference

C[C@]12CC[C@@H]3c4ccc(O)cc4CC[C@H]3[C@@H]1CC[C@@H]2O [E2, estradiol]
binding of ERval to ERE with E2 ([3]; 10^-8 M E2, FIG. 2a): binds strongly to ERE when E2 is included | binding of ERdel to DNA with and without E2 [7]: binds poorly to DNA in the presence and absence of E2 | increase of affinity of TRα-ERval for DNA (TRE) [8]: several fold

N[C@@H](Cc1cc(I)c(Oc2ccc(O)c(I)c2)c(I)c1)C(=O)O [T3]
ERE-CAT gene expression by ER-TRα alone [9]: efficiently enhances

CC/C(=C(\c1ccccc1)c1ccc(OCCN(C)C)cc1)c1ccccc1 [Tam, tamoxifen]
effect on binding of ERval to the ERE [3]: drastically increase

B1: ERE palindrome (dsDNA)
DNA 1: TCAGGTCACTGTGACCTGA
DNA 2: TCAGGTCACAGTGACCTGA
binding result [10]: binds | binding result [11]: binds
